Measured values published in patent publication US20260015574A1, “METHODS FOR SHORTENING LAG PHASE DURATION IN MICROORGANISMS” (YEDA RESEARCH AND DEVELOPMENT CO. LTD., priority 2022, published 2026).

Experiments:
Various marine bacteria = experiment: Lag phase shortening in various marine bacteria; format: cell-based; settings: minute amounts of compound
Protocol: The bacterial strain Phaeobacter inhibens DSM 17395 was purchased from the German collection of microorganisms and cell cultures (DSMZ, Braunschweig, Germany) and stored at −80° C. with 20% glycerol. Routine cultivation of P. inhibens was conducted at 30° C. in artificial seawater medium (ASW) based on Goyet and Poisson (1989). The ASW medium contained mineral salts (NaCl, 409.41 mM; Na2SO4, 28.22 mM; KCl, 9.08 mM; KBr, 0.82 mM; NaF, 0.07 mM; Na2CO3, 0.20 mM; NaHCO3, 2 mM; MgCl2, 50.66 mM; SrCl2, 0.09 mM), L1 vitamins (thiamine HCl, 100 μg/L; biotin, 0.5 μg/L; vitamin B12, […]), L1 trace elements (Na2EDTA·2H2O, 4.36 mg/L; FeCl3·6H2O, 3.15 mg/L; MnCl2·4H2O, 178.1 μg/L; ZnSO4·7H2O, 23.0 μg/L; CoCl2·6H2O, 11.9 μg/L; CuSO4·5H2O, 2.5 μg/L; Na2MoO4·2H2O, 19.9 μg/L; H2SeO3, 1.29 μg/L; NiSO4·6H2O, 2.63 μg/L; Na3 VO4, 1.84 μg/L; K2CrO4, 1.94 μg/L), and L1 nutrients (NaNO3, 882 μM; NaH2PO4, 36.22 μM). ASW was adjusted to pH 8 using HCl. […] A 96-well Tecan Infinite M Plex plate reader was used for high-resolution monitoring of bacterial growth dynamics at 30° C. […] The growth of bacteria in co-culture with algae was monitored by counting colony forming units (CFU) on ½ YTSS agar plates. The growth of algae was monitored with a CellStream flow cytometer (Merck, Darmstadt, Germany). […]

[1] = system: P. inhibens dmdA KO mutant; experiment: Lag phase shortening in dmdA knockout mutant; format: cell-based, Phaeobacter inhibens
Protocol: For creation of P. inhibens knockout cells, ˜1,000 bp regions upstream and downstream of the gene of interest were amplified by PCR (Phusion High-Fidelity DNA polymerase, Thermo Scientific), using primers that added homologous regions to gentamycin or kanamycin resistance markers. The fragments were assembled and cloned into the TOPOII vector (Invitrogen) using restriction-free cloning (Peleg Y. & Unger T., 2014), generating a knockout (KO) plasmid. P. inhibens electrocompetent cells (300 μl) were transformed with 10 μg of the constructed KO plasmid by a pulse of 1.8 kV (Bio Rad). Cells were selected on ½YTSS agar plates containing 30 μg/ml gentamycin or 150 μg/ml kanamycin. Successful knockouts in single cell clones were verified by PCR and sanger sequencing.
The inventors further sought to better understand why methyl groups shorten the bacterial lag phase. The inventors list at least three cellular scenarios which could explain the effect that methylated compounds have on the lag phase: (1) methyl groups might be a limiting resource; (2) methyl groups might act as a signal that triggers a cellular cascade, which culminates in lag phase shortening; and (3) methylated compounds could accumulate intracellularly and function as osmoprotectants and antioxidants. […]

[2] = system: bacteria that are plant-associated; experiment: Lag phase shortening in plant-associated bacteria; format: cell-based
Excerpt: To explore whether lag phase shortening is a general mechanism among bacteria, the inventors tested the effect of methylated compounds in bacteria with different lifestyles. […] Since methylated compounds are a hallmark of photosynthesizing organisms, the inventors next tested a variety of bacteria that are plant-associated. […] Finally, to establish the prevalence of lag phase shortening among bacteria, the inventors tested the model bacterium E. coli. This bacterium is not commonly found associated with photosynthesizing organisms, and thus, is unlikely to respond to algal metabolites. […] The synchrony between specific compounds and different groups of bacteria may reflect the natural context […].

[3] = system: Bacillus subtilis strain 168; experiment: Lag phase shortening in B. subtilis; format: cell-based; settings: 2 μM compound
Protocol: The bacterial strain Phaeobacter inhibens DSM 17395 was purchased from the German collection of microorganisms and cell cultures (DSMZ, Braunschweig, Germany) and stored at −80° C. with 20% glycerol. Routine cultivation of P. inhibens was conducted at 30° C. in artificial seawater medium (ASW) based on Goyet and Poisson (1989). The ASW medium contained mineral salts (NaCl, 409.41 mM; Na2SO4, 28.22 mM; KCl, 9.08 mM; KBr, 0.82 mM; NaF, 0.07 mM; Na2CO3, 0.20 mM; NaHCO3, 2 mM; MgCl2, 50.66 mM; SrCl2, 0.09 mM), L1 vitamins (thiamine HCl, 100 μg/L; biotin, 0.5 μg/L; vitamin B12, […]), L1 trace elements (Na2EDTA·2H2O, 4.36 mg/L; FeCl3·6H2O, 3.15 mg/L; MnCl2·4H2O, 178.1 μg/L; ZnSO4·7H2O, 23.0 μg/L; CoCl2·6H2O, 11.9 μg/L; CuSO4·5H2O, 2.5 μg/L; Na2MoO4·2H2O, 19.9 μg/L; H2SeO3, 1.29 μg/L; NiSO4·6H2O, 2.63 μg/L; Na3 VO4, 1.84 μg/L; K2CrO4, 1.94 μg/L), and L1 nutrients (NaNO3, 882 μM; NaH2PO4, 36.22 μM). ASW was adjusted to pH 8 using HCl. If not otherwise stated, the medium was further supplemented with a source of carbon (glucose, 1 mM), nitrogen (NH4Cl, 5 mM), and sulfur (Na2SO4, 33 mM), referred to as ASW+CNS. Methylated effector compounds (e.g., donors) were administered at 1 or 2 μM in routine assays, or in higher concentrations as stated. The bacterium Bacillus subtilis strain 168 was cultivated in M9 Medium (Na2HPO4, 6 g/L; KH2PO4, 3 g/L; NaCl, 0.5 g/L; NH4CL, 1 g/L; CaCl2), 100 µM; MgSO4, 1 mM; Thiamine, 5 mg/L; EDTA, 50 mg/L; FcCl3, 4.98 mg/L; ZnCl2, 0.84 mg/L; CuCl2·2H2O, 0.13 mg/L; CoCl2·6H2O, 0.1 mg/L; H3BO3, 0.1 mg/L; MnCl2·4H2O, 0.016 mg/L; pH 7.1) with 20 mM glucose. Other bacterial strains tested for lag phase shortening were isolated from the marine environment (Despotović et al., 2021), and cultivated in ASW+CNS. A 96-well Tecan Infinite M Plex plate reader was used for high-resolution monitoring of bacterial growth dynamics at 30° C. […] The growth of bacteria in co-culture with algae was monitored by counting colony forming units (CFU) on ½ YTSS agar plates. The growth of algae was monitored with a CellStream flow cytometer (Merck, Darmstadt, Germany). […]

P. inhibens = experiment: Imaging flow cytometry of bacterial populations during the lag phase; format: cell-based, Phaeobacter inhibens; settings: DMSP-treated cultures
Protocol: The bacterial strain Phaeobacter inhibens DSM 17395 was purchased from the German collection of microorganisms and cell cultures (DSMZ, Braunschweig, Germany) and stored at −80° C. with 20% glycerol. Routine cultivation of P. inhibens was conducted at 30° C. in artificial seawater medium (ASW) based on Goyet and Poisson (1989). […] A 96-well Tecan Infinite M Plex plate reader was used for high-resolution monitoring of bacterial growth dynamics at 30° C. […] The growth of bacteria in co-culture with algae was monitored by counting colony forming units (CFU) on ½ YTSS agar plates. The growth of algae was monitored with a CellStream flow cytometer (Merck, Darmstadt, Germany).
To reflect the natural low bacterial abundance in the oligotrophic ocean with low microalgal productivity, the current bacterial growth experiments were routinely initiated with an optical density (OD) of 0.00001. […] To determine the actual length of the lag phase, the inventors analyzed bacterial cultures using imagining flow cytometry. […]

For `C[S+](C)CCC(=O)[O-]` [DMSP, dimethylsulfoniopropionate], the lag phase shortening (Various marine bacteria) was “marked lag phase shortening”, the lag phase shortening [1] was “does not shorten the lag phase” and the lag phase shortening [2] was “to slightly less extent”. For the same compound, the lag phase shortening [3] was “induction of the lag phase shortening” and the “time at which transition from aggregates to single-celled bacteria is concluded” value (P. inhibens) was 3 h.
